Assay results as given in patent US8828929B2 (priority 2008, dated 2014).
Where no end group is shown, it is not given here.

What was measured:
[1] = tested on: peptide-specific CTLs (IFN-γ-positive cells among CD8-positive cells); set-up: species or system HLA-A2 transgenic mouse; conditions: mouse, in vivo; for ICS (% in CD8+ cells): iv
[2] = molecular target: T1, HLA-A*0201 (Homo sapiens, UniProt P04439, D140Y/D185E/D98H/E176V/E277Q/G131W/G231S/I119V/I121R/I166T/I218V/L300P/L318F/N151K/N90K/P208A/P217A/Q86G/Q94H/R138H/R169H/T345S); assay: cell-based; format: binding
T1 construct: endogenous in cells; host or cells: T2 cells (human lymphoid, TAP-deficient)

[3] = molecular target: T2, HLA-A*0201 (Homo sapiens, UniProt P04439, /I218V/L300P/L318F/N151K/N90K/P208A/P217A/Q86G/Q94H/R138H/R169H/T345S); assay: cell-based; format: binding
T2 construct: endogenous in cells; host or cells: T2 cells (human lymphoid, TAP-deficient)

[4] = tested on: peptide-specific CTLs (IFN-γ-positive cells among CD8-positive cells); set-up: species or system HLA-A2 transgenic mouse; conditions: mouse, in vivo
[5] = tested on: target cells pulsed with the peptide; set-up: species or system HLA-A2 transgenic mouse; conditions: mouse, in vivo

Row | Compound | ICS (% in CD8+ cells) [1] | EC50 [2] [µM] | Affinity [3] | ratio (%) of IFN-γ-positive cells among CD8-positive cells [4] [%] | induction of IFN-γ-positive cells among CD8-positive cells [1] | CTL induction activity [4] | CTL response activity [5] | peptide-specific lysis rates (%) of the target cells by CTLs [5] [%]
1 | KLNIKLLGI [pp1a-3816] | 0.07% | 68.1 | High (key: High: less than 100 μM; Medium: 100 to 200 μM; Low: more than 200 μM) |  |  |  |  | 
2 | CC(C)C[C@H](NC(=O)[C@H](CO)NC(=O)[C@@H]1CCCN1C(=O)[C@H](CC(C)C)NC(=O)[C@H](CC(C)C)NC(=O)[C@@H](N)Cc1ccccc1)C(=O)N[C@@H](C)C(=O)N[C@H](C(=O)N[C@H](C(=O)O)C(C)C)[C@@H](C)O [pp1a-3616] | 0.07% |  | High (key: High: less than 100 μM; Medium: 100 to 200 μM; Low: more than 200 μM) |  |  |  |  | 
3 | FIAGLIAIV [spike-1203, reference compound] |  |  |  | 0.29 |  |  |  | 
4 | CC[C@H](C)[C@H](NC(=O)[C@H](CC(=O)O)NC(=O)[C@H](Cc1ccccc1)NC(=O)[C@@H](NC(=O)CNC(=O)[C@@H](NC(=O)[C@@H](NC(=O)[C@H](CC(C)C)NC(=O)[C@@H](N)Cc1ccccc1)[C@@H](C)CC)[C@@H](C)O)C(C)C)C(=O)O [pp1a-651] | 0.02% |  | High (key: High: less than 100 μM; Medium: 100 to 200 μM; Low: more than 200 μM) |  |  |  |  | 
5 | ALSGVFCGV [pp1a-2990] | *0.16% | 6.2 | High (key: High: less than 100 μM; Medium: 100 to 200 μM; Low: more than 200 μM) |  | significantly induced IFN-γ-positive cells among CD8-positive cells | higher than that of the CTL epitope peptide of the Spike protein | high CTL response activities | 73.4
6 | MLSRALKKV [pp1a-1288] | 0.05% | 65.1 | High (key: High: less than 100 μM; Medium: 100 to 200 μM; Low: more than 200 μM) |  |  |  |  | 
7 | LLFITGNTL [pp1a-3745] | 0.03% | 154 | Medium (key: High: less than 100 μM; Medium: 100 to 200 μM; Low: more than 200 μM) |  |  |  |  | 
8 | TLGVLVPHV [pp1a-103] | 0.07% | 3.1 | High (key: High: less than 100 μM; Medium: 100 to 200 μM; Low: more than 200 μM) |  |  |  |  | 
9 | CC[C@H](C)[C@H](NC(=O)[C@H](CCC(=O)O)NC(=O)[C@H](CC(C)C)NC(=O)[C@H](CC(C)C)NC(=O)[C@H](CC(=O)O)NC(=O)[C@H](CCC(=O)O)NC(=O)[C@H](CC(N)=O)NC(=O)[C@H](CC(C)C)NC(=O)[C@@H](N)[C@@H](C)O)C(=O)O [pp1a-445] | 0.08% |  | High (key: High: less than 100 μM; Medium: 100 to 200 μM; Low: more than 200 μM) |  |  |  |  | 
10 | CC[C@H](C)[C@H](NC(=O)[C@H](CC(C)C)NC(=O)[C@H](CC(C)C)NC(=O)[C@H](CO)NC(=O)[C@@H](NC(=O)[C@H](CC(C)C)NC(=O)[C@@H](N)Cc1ccccc1)[C@@H](C)O)C(=O)N[C@@H](CC(C)C)C(=O)N[C@H](C(=O)O)C(C)C [pp1a-3564] | 0.06% |  | Medium (key: High: less than 100 μM; Medium: 100 to 200 μM; Low: more than 200 μM) |  |  |  |  | 
11 | CC(C)C[C@H](NC(=O)[C@H](Cc1c[nH]c2ccccc12)NC(=O)[C@H](C)NC(=O)[C@H](CC(C)C)NC(=O)[C@@H](N)C(C)C)C(=O)N[C@@H](Cc1ccc(O)cc1)C(=O)N[C@@H](C)C(=O)N[C@@H](C)C(=O)N[C@H](C(=O)O)C(C)C [pp1a-3444] | *0.12% |  | High (key: High: less than 100 μM; Medium: 100 to 200 μM; Low: more than 200 μM) |  | significantly induced IFN-γ-positive cells among CD8-positive cells |  |  | 
12 | CC(C)C[C@H](NC(=O)[C@@H](NC(=O)[C@@H](NC(=O)[C@@H](NC(=O)[C@H](Cc1ccccc1)NC(=O)[C@H](CCCNC(=N)N)NC(=O)[C@H](CC(N)=O)NC(=O)[C@H](CC(C)C)NC(=O)[C@@H](N)Cc1ccccc1)[C@@H](C)O)[C@@H](C)O)[C@@H](C)O)C(=O)O [pp1a-3459] | 0.03% |  | High (key: High: less than 100 μM; Medium: 100 to 200 μM; Low: more than 200 μM) |  |  |  |  | 
13 | CC[C@H](C)[C@H](NC(=O)[C@H](CO)NC(=O)[C@H](CC(C)C)NC(=O)[C@H](CC(C)C)NC(=O)[C@H](CC(C)C)NC(=O)[C@H](CC(C)C)NC(=O)[C@H](Cc1c[nH]c2ccccc12)NC(=O)[C@H](CCSC)NC(=O)[C@H](C)N)C(=O)O [pp1a-2207] | *0.48% |  |  |  | significantly induced IFN-γ-positive cells among CD8-positive cells | higher than that of the CTL epitope peptide of the Spike protein |  | 
14 | ILLLDQVLV [pp1a-2546] | *0.17% | 7.6 | High (key: High: less than 100 μM; Medium: 100 to 200 μM; Low: more than 200 μM) |  | significantly induced IFN-γ-positive cells among CD8-positive cells | higher than that of the CTL epitope peptide of the Spike protein |  | 
15 | YLSSVLLAL [pp1a-1652, YLSSVLLAL] | 0.05% | 6.7 | High (key: High: less than 100 μM; Medium: 100 to 200 μM; Low: more than 200 μM) |  |  |  |  | 
16 | QLSLPVLQV [pp1a-15] | 0.05% | 75.7 | High (key: High: less than 100 μM; Medium: 100 to 200 μM; Low: more than 200 μM) |  |  |  |  | 
17 | MLLTFLTSL [pp1a-3560] | 0.04% | 47.1 | High (key: High: less than 100 μM; Medium: 100 to 200 μM; Low: more than 200 μM) |  |  |  |  | 
18 | KLSAGVEFL [pp1a-634] | 0.08% | 59.8 | High (key: High: less than 100 μM; Medium: 100 to 200 μM; Low: more than 200 μM) |  |  |  |  | 
19 | LLCVLAALV [pp1a-2755] | *0.18% | 187 |  |  | significantly induced IFN-γ-positive cells among CD8-positive cells | higher than that of the CTL epitope peptide of the Spike protein | high CTL response activities | 70.5
20 | SLQVCVQTV [pp1a-1139] | 0.07% | 4.9 | High (key: High: less than 100 μM; Medium: 100 to 200 μM; Low: more than 200 μM) |  |  |  |  | 
21 | CC(C)C[C@H](NC(=O)[C@H](C)NC(=O)[C@H](C)NC(=O)[C@H](CC(C)C)NC(=O)[C@@H](NC(=O)[C@H](CS)NC(=O)[C@H](CC(C)C)NC(=O)[C@H](CC(C)C)NC(=O)[C@@H](N)[C@@H](C)O)C(C)C)C(=O)O [pp1a-2754, TLLCVLAAL] | 0.04% |  | High (key: High: less than 100 μM; Medium: 100 to 200 μM; Low: more than 200 μM) |  |  |  |  | 
22 | CC[C@H](C)[C@H](NC(=O)[C@@H](NC(=O)[C@H](CC(C)C)NC(=O)[C@H](C)NC(=O)[C@H](Cc1c[nH]c2ccccc12)NC(=O)[C@H](CCSC)NC(=O)[C@@H](N)CO)C(C)C)C(=O)N[C@@H](CO)C(=O)N[C@H](C(=O)O)C(C)C [pp1a-3709] | *0.50% |  | High (key: High: less than 100 μM; Medium: 100 to 200 μM; Low: more than 200 μM) |  | significantly induced IFN-γ-positive cells among CD8-positive cells | higher than that of the CTL epitope peptide of the Spike protein | especially high CTL response activity | 96.3
23 | CLDAGINYV [pp1a-2187] | *0.19% | 3 | High (key: High: less than 100 μM; Medium: 100 to 200 μM; Low: more than 200 μM) |  | significantly induced IFN-γ-positive cells among CD8-positive cells | higher than that of the CTL epitope peptide of the Spike protein | high CTL response activities | 79.2
24 | CC[C@H](C)[C@H](NC(=O)[C@@H](NC(=O)[C@H](CC(N)=O)NC(=O)[C@H](CCSC)NC(=O)[C@H](CC(C)C)NC(=O)[C@@H](N)[C@@H](C)O)C(C)C)C(=O)N[C@H](C(=O)N[C@@H](CC(C)C)C(=O)N[C@H](C(=O)O)C(C)C)[C@@H](C)O [pp1a-3687] | *0.20% |  | High (key: High: less than 100 μM; Medium: 100 to 200 μM; Low: more than 200 μM) |  | significantly induced IFN-γ-positive cells among CD8-positive cells | higher than that of the CTL epitope peptide of the Spike protein |  | 
25 | VLGSLAATV [pp1a-4219] | 0.01% | 53.3 | High (key: High: less than 100 μM; Medium: 100 to 200 μM; Low: more than 200 μM) |  |  |  |  | 
26 | VLLSVLQQL [pp1a-3848] | 0.07% | 102 | Medium (key: High: less than 100 μM; Medium: 100 to 200 μM; Low: more than 200 μM) |  |  |  |  | 
